Assay results from patent US5294633A, “Imidazolyl-propenoic acid derivatives” (Bayer Aktiengesellschaft, priority 1991, dated 1994).
Values after ≈ are worked out from the molar mass of the structure shown.

Tested on: isolated rabbit aorta (contractions induced by angiotensin II)
Experiment: Inhibition of the contraction induced with angiotensin II in isolated rabbit aorta rings
Conditions: Oryctolagus cuniculus; isolated aorta rings of rabbits in vitro; effect at 3rd = submaximal agonist concentration; read-out: IC50 (g/ml) with respect to contractions induced by AII
Description: Rabbits of both sexes are anaesthetized by a blow to the neck and bled out, or alternatively anaesthetized with Nembutal (about 60-80 mg/kg i.v.) and sacrificed by opening the thorax. The thorax aorta is taken out, freed from adhering connective tissue, divided into 1. 5 Mm wide ring segments and these are individually transferred under an initial loading of about 3.5 g to 10 ml organ baths containing 95% O2 /5% CO2 -aerated Krebs-Henseleit nutrient solution thermostated at 37° C. and of the following composition: 119 mmol/l NaCl; 2.5 mmol/l CaCl2 ×2H2 O; 1.2 mmol/l KH2 PO4; 10 mmol/l glucose; 4.8 mmol/l KCl; 1.4 mmol/l MgSO4 ×7 H2 O and 25 mmol/l NaHCO3.
The contractions are detected isometrically by Statham UC2 cells by means of a bridge amplifier (ifd Mulheim or DSM Aalen) and digitized and evaluated by means of an A/D converter (System 570, Keithley, Munich). The agonist dose-response curves (DRC) are carried out hourly. With each DRC, 3 or 4 individual concentrations are applied to the baths at 4 min intervals. […]
The height of, in the normal case, the 3rd DRC is used as a reference quantity for the assessment of the test substance to be investigated in further passages, which test substance is applied to the baths in increasing dose in each case at the start of the incubation time in the following DRCs. […]

Row | Compound | IC50
1 | CCCCc1nc(Cl)c(/C=C/C(=O)OCC)n1Cc1ccc(-c2ccccc2-c2nnn[nH]2)cc1 [Example 1, Ethyl (E)-3-[2-n-butyl-4-chloro-1-{(2'-(tetrazol-5-yl)biphenyl-4-yl)methyl}-1H-imidazol-5-yl]-2-propenoate] | 0.025 µg/mL (≈ 0.0509 µM)
2 | CCCCc1nc(Cl)c(/C=C/C(=O)O)n1Cc1ccc(-c2ccccc2-c2nnn[nH]2)cc1 [Example 2, (E)-3-[2-n-Butyl-4-chloro-1-{(2'-(tetrazol-5-yl)biphenyl-4-yl)methyl}-1H-imidazol-5-yl]-2-propenoic acid] | 0.021 µg/mL (≈ 0.0454 µM)
